# Target: T1, LRRK2 (Homo sapiens, UniProt Q5S007, G2019S)
# T1 construct: purchased Invitrogen PV4882
# Test: In Vitro LRRK2 LabChip Assay (LRRK2 Ki)
# Format: biochemical
# Conditions: Table 5 compounds (formula I)
# Procedure: In Vitro LRRK2 LabChip Assay
# This assay was used to determine a compound's potency in inhibiting activity of LRRK2 by determining, Kiapp, IC50, or percent inhibition values. In a polypropylene plate, LRRK2, fluorescently-labeled peptide substrate, ATP and test compound were incubated together. Using a LabChip 3000 (Caliper Life Sciences), after the reaction the substrate was separated by capillary electrophoresis into two populations: phosphorylated and unphosphorylated. The relative amounts of each were quantitated by fluorescence intensity. LRRK2 Ki was determined according to the equation: Y=V0*(1−((x+Ki*(1+S/Km)+Et)/(2*Et)−(((x+Ki*(1+S/Km)+Et)^2−(4*Et*x))^0.5)/(2*Et))). Ki values in Table 4 and elsewhere herein are shown in μM.
# Assay conditions and materials used were as follows:
# LRRK2 Wild type in 5 mM MgCl2: 15 nM (Invitrogen lot #500607F)
# Kinase reaction time: 2 hours
# Wild type in 5 mM MgCl2: 80 μM
# Solid Support: Black 50 μL volume polypropylene 384 well plate (MatriCal cat # MP101-1-PP)
# Kinase: LRRK2 G2019S (Invitrogen cat #PV4882). • LRRK2 Wild type (Invitrogen cat #PV4874).
# Substrate: 5FAM-[…]-CONH2
# Non-binding plate: 384 well clear V-bottom polypropylene plates (Greiner cat #781280).
# ATP: 10 mM ATP (Cell Signaling cat #9804).
# Coating Reagent #3: Coating Reagent #3 (Caliper).
# Complete Reaction Buffer: H2O/25 mM Tris, pH 8.0/5 mM MgCl2/2 mM DTT/0.01% Triton X-100.
# Stop Solution: H2O/100 mM HEPES, pH 7.2/0.015% Brij-35/0.2% Coating Reagent #3/20 mM EDTA.
# Separation Buffer: H2O/100 mM HEPES, pH 7.2/0.015% Brij-35/0.1% Coating Reagent #3/1:200 Coating Reagent #8/10 mM EDTA/5% DMSO.
# Compound Plate Preparation:
# For serial dilutions, 34.6 μl DMSO was added to columns 3-24. For the assay controls, 37.5 μl DMSO was added to columns 1 and 2 of rows A and P. a, d and 50 μl 25 μM G-028831 (Staurosporine) was added to columns 1 and 2, row B. For the samples: to start at 100 μM, 37.5 μl DMSO was to columns 1 and 2, then 12.5 μl 10 mM compound; to start at 10 μM, 78 μl DMSO was added to columns 1 & 2, then 2 μl 10 mM compound; and to start at 1 μM, 25 μM compound (2 μl 10 mM cmpd+798 μl DMSO) was added to empty columns 1 and 2. A Precision instrument was used to perform 1:3.16 serial dilutions (“PLK_BM_serial_halflog”).
# ATP was diluted to 282.1 μM in Complete Kinase Buffer (final concentration was 130 μM).
# Total and Blank Preparation:
# In Complete Reaction Buffer, substrate was diluted to 4 μM. Equal volumes of Complete Reaction Buffer and 4 μM substrate were combined to obtain the blank. Equal volumes of Complete Reaction Buffer and 4 μM substrate were combined and to the combined solution was added 2× final LRRK2 concentration.
# To a 50 μl polypropylene plate, 5 μl/well buffer/substrate was added by hand to Blank wells. A Biomek FX was used to start the kinase reaction (“PLK SAR 23 ATP”). The following were added to the appropriate wells:
# 5 μl/well compound/ATP in Assay Plate;
# 5 μl/well kinase/substrate in Assay Plate;
# The plate was incubated for 2 hours in the dark. Biomek FX was used to stop the kinase reaction (“PLK Stop”), and 10 μl/well Stop solution was added to the Assay Plate. Results were read on the LabChip 3000.
# The LabChip 3000 was run using the job “LRRK2 IC50” with the following job settings:
# Downstream voltage: −500 V
# Upstream voltage: −2350 V
# Post sample buffer sip time: 75 seconds
# Post dye buffer sip time: 75 seconds
# Final delay time: 200 seconds
# T1 sequence (Q5S007 whole entry G2019S): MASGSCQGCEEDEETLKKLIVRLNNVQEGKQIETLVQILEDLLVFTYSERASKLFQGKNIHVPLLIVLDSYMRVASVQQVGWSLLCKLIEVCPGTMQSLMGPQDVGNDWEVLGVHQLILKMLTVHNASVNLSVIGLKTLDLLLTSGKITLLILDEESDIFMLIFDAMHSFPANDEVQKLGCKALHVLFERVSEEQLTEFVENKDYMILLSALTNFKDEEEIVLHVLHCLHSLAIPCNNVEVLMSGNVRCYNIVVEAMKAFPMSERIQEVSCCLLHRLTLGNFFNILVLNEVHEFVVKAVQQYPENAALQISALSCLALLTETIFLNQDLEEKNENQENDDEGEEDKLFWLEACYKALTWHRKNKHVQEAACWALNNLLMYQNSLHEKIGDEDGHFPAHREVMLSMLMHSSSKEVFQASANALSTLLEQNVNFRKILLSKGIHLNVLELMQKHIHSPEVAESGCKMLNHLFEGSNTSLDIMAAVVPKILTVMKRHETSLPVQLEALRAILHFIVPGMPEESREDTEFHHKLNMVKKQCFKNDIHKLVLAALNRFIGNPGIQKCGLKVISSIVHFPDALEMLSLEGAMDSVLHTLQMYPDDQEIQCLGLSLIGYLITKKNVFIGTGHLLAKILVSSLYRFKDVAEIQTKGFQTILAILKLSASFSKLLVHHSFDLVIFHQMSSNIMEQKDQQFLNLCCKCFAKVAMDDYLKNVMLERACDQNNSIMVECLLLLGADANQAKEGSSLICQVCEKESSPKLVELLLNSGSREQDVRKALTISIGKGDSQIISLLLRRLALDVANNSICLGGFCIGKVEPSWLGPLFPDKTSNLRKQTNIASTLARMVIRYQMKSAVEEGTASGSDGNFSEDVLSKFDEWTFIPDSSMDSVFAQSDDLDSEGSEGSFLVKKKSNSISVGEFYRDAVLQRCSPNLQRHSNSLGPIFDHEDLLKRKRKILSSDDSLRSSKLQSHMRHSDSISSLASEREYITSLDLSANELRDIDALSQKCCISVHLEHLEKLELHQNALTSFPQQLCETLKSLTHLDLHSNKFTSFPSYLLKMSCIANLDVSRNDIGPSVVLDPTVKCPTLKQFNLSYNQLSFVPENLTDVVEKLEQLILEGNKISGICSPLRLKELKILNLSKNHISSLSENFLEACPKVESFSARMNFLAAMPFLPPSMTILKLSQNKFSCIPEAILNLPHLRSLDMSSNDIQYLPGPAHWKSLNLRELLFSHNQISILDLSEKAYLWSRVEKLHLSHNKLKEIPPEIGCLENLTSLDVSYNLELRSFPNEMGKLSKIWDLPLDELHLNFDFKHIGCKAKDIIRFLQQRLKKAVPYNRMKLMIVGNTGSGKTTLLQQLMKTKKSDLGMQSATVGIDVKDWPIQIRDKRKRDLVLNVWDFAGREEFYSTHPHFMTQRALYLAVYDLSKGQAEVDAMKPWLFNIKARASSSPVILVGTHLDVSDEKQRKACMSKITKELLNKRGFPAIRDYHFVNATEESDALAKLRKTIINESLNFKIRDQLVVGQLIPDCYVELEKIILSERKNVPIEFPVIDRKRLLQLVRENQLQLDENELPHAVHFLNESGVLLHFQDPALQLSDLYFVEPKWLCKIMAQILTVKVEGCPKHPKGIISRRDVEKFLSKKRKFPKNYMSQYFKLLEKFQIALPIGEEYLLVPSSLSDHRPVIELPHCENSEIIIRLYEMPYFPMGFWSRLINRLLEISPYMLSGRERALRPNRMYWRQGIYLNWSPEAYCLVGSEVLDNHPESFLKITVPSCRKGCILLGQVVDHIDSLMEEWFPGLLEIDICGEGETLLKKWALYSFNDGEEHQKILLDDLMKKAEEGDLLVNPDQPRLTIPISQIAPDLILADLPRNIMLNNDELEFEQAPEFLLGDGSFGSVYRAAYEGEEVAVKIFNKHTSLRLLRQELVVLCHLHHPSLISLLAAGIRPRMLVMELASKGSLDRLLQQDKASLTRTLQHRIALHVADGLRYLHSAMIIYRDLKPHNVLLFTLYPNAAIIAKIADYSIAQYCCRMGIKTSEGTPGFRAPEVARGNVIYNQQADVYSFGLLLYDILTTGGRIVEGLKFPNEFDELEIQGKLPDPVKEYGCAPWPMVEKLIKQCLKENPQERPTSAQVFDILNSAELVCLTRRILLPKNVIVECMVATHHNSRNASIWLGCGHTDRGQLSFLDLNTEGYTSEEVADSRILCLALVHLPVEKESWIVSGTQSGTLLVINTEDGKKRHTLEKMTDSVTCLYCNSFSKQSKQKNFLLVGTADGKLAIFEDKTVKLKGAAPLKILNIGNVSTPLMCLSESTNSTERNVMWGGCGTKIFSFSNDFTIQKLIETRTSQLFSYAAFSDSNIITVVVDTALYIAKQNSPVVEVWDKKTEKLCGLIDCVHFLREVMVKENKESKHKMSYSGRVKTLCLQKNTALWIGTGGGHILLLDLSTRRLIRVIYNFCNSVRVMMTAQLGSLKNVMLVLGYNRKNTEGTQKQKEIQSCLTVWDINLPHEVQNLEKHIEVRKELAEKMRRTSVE
row,Ki [nM],Compound
1,33.3,"COc1cc(C(=O)N2CCOCC2)c(F)cc1Nc1ncc(C(F)(F)F)c(OC)n1 [Compound 50, [2-Fluoro-5-methoxy-4-(4-methoxy-5-trifluoromethyl-pyrimidin-2-ylamino)-phenyl]-morpholin-4-yl-methanone]"
2,2.28,"O=C(c1ccc(Nc2ncc(C(F)(F)F)c(NC3CC3)n2)c(F)c1F)N1CCOCC1 [Compound 51, [4-(4-Cyclopropylamino-5-trifluoromethyl-pyrimidin-2-ylamino)-2,3-difluoro-phenyl]-morpholin-4-yl-methanone]"
3,3.35,"O=C(c1cc(F)c(Nc2ncc(C(F)(F)F)c(NC3CC3)n2)cc1F)N1CCOCC1 [Compound 52, [4-(4-Cyclopropylamino-5-trifluoromethyl-pyrimidin-2-ylamino)-2,5-difluoro-phenyl]-morpholin-4-yl-methanone]"
4,19.6,"CNc1nc(Nc2cc(Cl)c(C(=O)N3CCOCC3)cc2F)ncc1C(F)(F)F [Compound 53, [2-Chloro-5-fluoro-4-(4-methylamino-5-trifluoromethyl-pyrimidin-2-ylamino)-phenyl]-morpholin-4-yl-methanone]"
5,82.5,"CCNc1nc(Nc2ccc(C(=O)N3CC[C@H](F)C3)cc2OC)ncc1C#N [Compound 54, 4-Ethylamino-2-[4-((S)-3-fluoro-pyrrolidine-1-carbonyl)-2-methoxy-phenylamino]-pyrimidine-5-carbonitrile]"
6,14.5,"CNc1nc(Nc2cc(OC)c(C(=O)N(C)c3cnn(C)c3)cc2Cl)ncc1C(F)(F)F [Compound 55, 5-Chloro-2-methoxy-N-methyl-4-(4-methylamino-5-trifluoromethyl-pyrimidin-2-ylamino)-N-(1-methyl-1H-pyrazol-4-yl)-benzamide]"
7,1.13,"CCNc1nc(Nc2cc(OC)c(C(=O)N3CCC(F)(F)C3)cc2OC)ncc1C(F)(F)F [Compound 56, (3,3-Difluoro-pyrrolidin-1-yl)-[4-(4-ethylamino-5-trifluoromethyl-pyrimidin-2-ylamino)-2,5-dimethoxy-phenyl]-methanone]"
8,14.5,"COc1nc(Nc2ccc(C(=O)N3CCOCC3)cc2OCCF)ncc1Cl [Compound 57, [4-(5-Chloro-4-methoxy-pyrimidin-2-ylamino)-3-(2-fluoro-ethoxy)-phenyl]-morpholin-4-yl-methanone]"
9,5.63,"CNc1nc(Nc2cc(OC)c(C(=O)N3CCOCC3)cc2C)ncc1C(F)(F)F [Compound 58, [2-Methoxy-5-methyl-4-(4-methylamino-5-trifluoromethyl-pyrimidin-2-ylamino)-phenyl]-morpholin-4-yl-methanone]"
10,4.31,"CCNc1nc(Nc2cc(Cl)c(C(=O)N3CCOCC3)cc2F)ncc1C(F)(F)F [Compound 59, [2-Chloro-4-(4-ethylamino-5-trifluoromethyl-pyrimidin-2-ylamino)-5-fluoro-phenyl]-morpholin-4-yl-methanone]"
11,14.2,"CNc1nc(Nc2ccc(C(=O)N3CCOCC3)c(F)c2Cl)ncc1C(F)(F)F [Compound 60, [3-Chloro-2-fluoro-4-(4-methylamino-5-trifluoromethyl-pyrimidin-2-ylamino)-phenyl]-morpholin-4-yl-methanone]"
12,1.03,"CCNc1nc(Nc2cc(OC)c(C(=O)N3CCC(F)(F)C3)cc2OCCF)ncc1C(F)(F)F [Compound 61, (3,3-Difluoro-pyrrolidin-1-yl)-[4-(4-ethylamino-5-trifluoromethyl-pyrimidin-2-ylamino)-5-(2-fluoro-ethoxy)-2-methoxy-phenyl]-methanone]"
13,9.08,"CCNc1nc(Nc2cc(F)c(C(=O)N3CCOCC3)c(F)c2OC)ncc1C(F)(F)F [Compound 62, [4-(4-Ethylamino-5-trifluoromethyl-pyrimidin-2-ylamino)-2,6-difluoro-3-methoxy-phenyl]-morpholin-4-yl-methanone]"
14,24.3,"CNc1nc(Nc2cc(F)c(C(=O)N3CCOCC3)c(F)c2OC)ncc1C(F)(F)F [Compound 63, [2,6-Difluoro-3-methoxy-4-(4-methylamino-5-trifluoromethyl-pyrimidin-2-ylamino)-phenyl]-morpholin-4-yl-methanone]"
15,16.9,"CCOc1nc(Nc2cc(F)c(C(=O)N3CCOCC3)cc2OC)ncc1C(F)(F)F [Compound 64, [4-(4-Ethoxy-5-trifluoromethyl-pyrimidin-2-ylamino)-2-fluoro-5-methoxy-phenyl]-morpholin-4-yl-methanone]"
16,1.09,"CNc1nc(Nc2cc(OC)c(C(=O)N3CCOCC3)cc2OC)ncc1C(F)(F)F [Compound 65, [2,5-Dimethoxy-4-(4-methylamino-5-trifluoromethyl-pyrimidin-2-ylamino)-phenyl]-morpholin-4-yl-methanone]"
17,0.388,"CCNc1nc(Nc2cc(OC)c(C(=O)N3CCC(F)(F)C3)cc2OCF)ncc1C(F)(F)F [Compound 66, (3,3-Difluoro-pyrrolidin-1-yl)-[4-(4-ethylamino-5-trifluoromethyl-pyrimidin-2-ylamino)-5-fluoromethoxy-2-methoxy-phenyl]-methanone]"
18,2.53,"CNc1nc(Nc2cc(C(F)(F)F)c(C(=O)N3CCOCC3)cc2OC)ncc1C(F)(F)F [Compound 67, [5-Methoxy-4-(4-methylamino-5-trifluoromethyl-pyrimidin-2-ylamino)-2-trifluoromethyl-phenyl]-morpholin-4-yl-methanone]"
19,4.73,"CNc1nc(Nc2cc(C(F)(F)F)c(C(=O)N3CCOCC3)cc2OC)ncc1Cl [Compound 68, [4-(5-Chloro-4-methylamino-pyrimidin-2-ylamino)-5-methoxy-2-trifluoromethyl-phenyl]-morpholin-4-yl-methanone]"
20,9.31,"CNc1nc(Nc2cc(F)c(C(=O)N3CCOCC3)cc2Cl)ncc1C(F)(F)F [Compound 69, [5-Chloro-2-fluoro-4-(4-methylamino-5-trifluoromethyl-pyrimidin-2-ylamino)-phenyl]-morpholin-4-yl-methanone]"
21,0.658,"O=C(c1cc(OCCF)c(Nc2ncc(C(F)(F)F)c(NC3CC3)n2)cc1F)N1CCOCC1 [Compound 70, [4-(4-Cyclopropylamino-5-trifluoromethyl-pyrimidin-2-ylamino)-2-fluoro-5-(2-fluoro-ethoxy)-phenyl]-morpholin-4-yl-methanone]"
22,1.08,"CCNc1nc(Nc2cc(C)c(C(=O)N3CCOCC3)cc2Cl)ncc1C(F)(F)F [Compound 71, [5-Chloro-4-(4-ethylamino-5-trifluoromethyl-pyrimidin-2-ylamino)-2-methyl-phenyl]-morpholin-4-yl-methanone]"
23,1.46,"CCNc1nc(Nc2cc(OCF)c(C(=O)N3CCOCC3)cc2Cl)ncc1C(F)(F)F [Compound 72, [5-Chloro-4-(4-ethylamino-5-trifluoromethyl-pyrimidin-2-ylamino)-2-fluoromethoxy-phenyl]-morpholin-4-yl-methanone]"
24,4.97,"CNc1nc(Nc2cc(C)c(C(=O)N3CCOCC3)cc2F)ncc1C(F)(F)F [Compound 73, [5-Fluoro-2-methyl-4-(4-methylamino-5-trifluoromethyl-pyrimidin-2-ylamino)-phenyl]-morpholin-4-yl-methanone]"
25,4.65,"CCNc1nc(Nc2cc(F)c(C(=O)N3CCOCC3)cc2Cl)ncc1C(F)(F)F [Compound 74, [5-Chloro-4-(4-ethylamino-5-trifluoromethyl-pyrimidin-2-ylamino)-2-fluoro-phenyl]-morpholin-4-yl-methanone]"

# — patent US8809331B2 (Genentech, Inc., priority 2011, dated 2014)
